The numbers were not newly measured in patent US20090220618A1, “PHARMACEUTICAL FORMULATIONS COMPRISING POLYANIONIC MATERIALS AND SOURCE OF HYDROGEN PEROXIDE” (priority 2008, published 2009), which cites them from elsewhere.

The conditions of series [1]: at 25° C.
The subject of series [2] is sensitive tissues of the eye.

On to `CC(C)(CO)NCC(O)CS(=O)(=O)O` (stereo not drawn) [AMP SO], for which the pKa in series [1] is recorded as 9.0.

For the molecule `O=S(=O)(O)CC(O)CN(CCO)CCO` (stereo not drawn) [DIPSO], the pKa in series [1] is 7.52.

In the case of `O=S(=O)(O)CCCCNC(CO)(CO)CO` [TABS, N-tris(hydroxymethyl)methyl-4-aminobutanesulfonic acid], in series [1], the pKa is 8.9.

With benzalkonium chloride [BAK], in series [2], the concentration causing apoptosis was 0.01%, the “concentration causing growth arrest” value is on record as 0.00001% and the concentrations causing necrosis was 0.05-0.1%.

In general, pKa refers to the pH at which an ionisable group is half protonated.
